# Measured values published in ChEMBL document CHEMBL1201862, “PubChem BioAssay data set” (2004).
#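 Growth conditions: 96-well plates. Treatment: test compound, 48 hours, 5 concentrations. Analysis: linear interpolation between bracketing concentrations; unreached endpoints set to highest concentration. GI50 = concentration required for 50% inhibition of growth.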 The source made the active and inactive calls. Rule as the data show it: active = GI50 up to about 1.1 µM and inactive = higher.
# What was measured:
# Experiment in all cases: NCI anticancer screen, dose series, 48 h
# NCI-H23 = system: NCI-H23
# COLO 205 = system: COLO 205
# UACC-257 = system: UACC-257
# A498 = system: A498
# OVCAR-3 = system: OVCAR-3
# UO-31 = system: UO-31
# CCRF-CEM = system: CCRF-CEM
# HOP-92 = system: HOP-92
# BT-549 = system: BT-549
# SK-MEL-5 = system: SK-MEL-5
# A549 = system: A549
# EKVX = system: EKVX
# CAKI-1 = system: CAKI-1
# HOP-62 = system: HOP-62
# NCI-H522 = system: NCI-H522
# T47D = system: T47D
# SF-295 = system: SF-295
# SNB-75 = system: SNB-75
# 786-0 = system: 786-0
# RPMI-8226 = system: RPMI-8226
# PC-3 = system: PC-3
# Hs-578T = system: Hs-578T
# MCF7 = system: MCF7
# ACHN = system: ACHN
# M14 = system: M14
# HCT-15 = system: HCT-15
# SN12C = system: SN12C
# U-251 = system: U-251
# MOLT-4 = system: MOLT-4
# MDA-MB-231 = system: MDA-MB-231
# MDA-MB-435 = system: MDA-MB-435
# SNB-19 = system: SNB-19
# IGROV-1 = system: IGROV-1
# Malme-3M = system: Malme-3M
# LOX IMVI = system: LOX IMVI
# SW-620 = system: SW-620
# SF-268 = system: SF-268
# TK-10 = system: TK-10
# DU-145 = system: DU-145
# NCI-H460 = system: NCI-H460
# SR = system: SR
# SK-MEL-2 = system: SK-MEL-2
# KM12 = system: KM12
# HL-60 = system: HL-60
# HT-29 = system: HT-29
# SK-MEL-28 = system: SK-MEL-28
# OVCAR-4 = system: OVCAR-4
# NCI-H226 = system: NCI-H226
# SK-OV-3 = system: SK-OV-3
# RXF 393 = system: RXF 393
# MDA-N = system: MDA-N
# UACC-62 = system: UACC-62
# HCC 2998 = system: HCC 2998
# OVCAR-8 = system: OVCAR-8
# HCT-116 = system: HCT-116
# SF-539 = system: SF-539
# NCI/ADR-RES = system: NCI/ADR-RES
# OVCAR-5 = system: OVCAR-5
# K562 = system: K562
structure (smiles),measurement,setting,value
CC(C)[Si]1(C(C)C)OCC2OC(n3ccc(=O)[nH]c3=O)C([Se]c3ccccc3)C2O[Si](C(C)C)(C(C)C)O1 (stereo unspecified),GI50,NCI-H23,3.57 µM (inactive)
same,GI50,COLO 205,4.86 µM (inactive)
same,GI50,UACC-257,4.31 µM (inactive)
same,GI50,A498,7.87 µM (inactive)
same,GI50,OVCAR-3,4.52 µM (inactive)
same,GI50,UO-31,8.77 µM (inactive)
same,GI50,CCRF-CEM,8.91 µM (inactive)
same,GI50,HOP-92,3.5 µM (inactive)
same,GI50,BT-549,11.6 µM (inactive)
same,GI50,SK-MEL-5,3.01 µM (inactive)
same,GI50,A549,9.46 µM (inactive)
same,GI50,EKVX,4.93 µM (inactive)
same,GI50,CAKI-1,11.5 µM (inactive)
same,GI50,HOP-62,12.3 µM (inactive)
same,GI50,NCI-H522,2.1 µM (inactive)
same,GI50,T47D,6.71 µM (inactive)
same,GI50,SF-295,5.9 µM (inactive)
same,GI50,SNB-75,0.33 µM (active)
same,GI50,786-0,3.83 µM (inactive)
same,GI50,RPMI-8226,2.95 µM (inactive)
same,GI50,PC-3,3.35 µM (inactive)
same,GI50,Hs-578T,0.762 µM (active)
same,GI50,MCF7,2.75 µM (inactive)
same,GI50,ACHN,2.61 µM (inactive)
same,GI50,M14,8.24 µM (inactive)
same,GI50,HCT-15,4.39 µM
same,GI50,SN12C,2.29 µM (inactive)
same,GI50,U-251,2.07 µM (inactive)
same,GI50,MOLT-4,7.38 µM (inactive)
same,GI50,MDA-MB-231,2.83 µM (inactive)
same,GI50,MDA-MB-435,5.42 µM (inactive)
same,GI50,SNB-19,0.261 µM (active)
same,GI50,IGROV-1,2.44 µM (inactive)
same,GI50,Malme-3M,2.81 µM (inactive)
same,GI50,LOX IMVI,0.769 µM (active)
same,GI50,SW-620,2.32 µM (inactive)
same,GI50,SF-268,2.93 µM (inactive)
same,GI50,TK-10,7.46 µM (inactive)
same,GI50,DU-145,12.2 µM (inactive)
same,GI50,NCI-H460,1.87 µM (inactive)
same,GI50,SR,3.72 µM (inactive)
same,GI50,SK-MEL-2,6.79 µM (inactive)
same,GI50,KM12,2.16 µM (inactive)
same,GI50,HL-60,5.89 µM (inactive)
same,GI50,HT-29,1.66 µM (inactive)
same,GI50,SK-MEL-28,3.59 µM (inactive)
same,GI50,OVCAR-4,2.88 µM (inactive)
same,GI50,NCI-H226,1.55 µM (inactive)
same,GI50,SK-OV-3,16.5 µM (inactive)
same,GI50,RXF 393,4.55 µM (inactive)
same,GI50,MDA-N,3.4 µM (inactive)
same,GI50,UACC-62,4.71 µM (inactive)
same,GI50,HCC 2998,1.58 µM (inactive)
same,GI50,OVCAR-8,3.4 µM (inactive)
same,GI50,HCT-116,2.62 µM (inactive)
same,GI50,SF-539,7.96 µM (inactive)
same,GI50,NCI/ADR-RES,11.2 µM (inactive)
same,GI50,OVCAR-5,9.48 µM (inactive)
CCOC(=O)CCNC(=O)c1cc(C)cc2c1Oc1c(cc(C)cc1C(=O)NCCC(=O)OCC)S2,GI50,NCI-H23,> 100 µM (inactive)
same,GI50,COLO 205,> 100 µM (inactive)
same,GI50,UACC-257,79.6 µM (inactive)
same,GI50,A498,27.2 µM (inactive)
same,GI50,OVCAR-3,> 100 µM (inactive)
same,GI50,UO-31,> 100 µM (inactive)
same,GI50,CCRF-CEM,> 100 µM (inactive)
same,GI50,HOP-92,19.5 µM (inactive)
same,GI50,BT-549,68.7 µM (inactive)
same,GI50,SK-MEL-5,35.9 µM (inactive)
same,GI50,A549,64 µM (inactive)
same,GI50,EKVX,> 100 µM (inactive)
same,GI50,CAKI-1,65.6 µM (inactive)
same,GI50,HOP-62,56.4 µM (inactive)
same,GI50,NCI-H522,40.6 µM (inactive)
same,GI50,T47D,28.8 µM (inactive)
same,GI50,SF-295,53.5 µM (inactive)
same,GI50,SNB-75,20.7 µM (inactive)
same,GI50,786-0,50 µM (inactive)
same,GI50,RPMI-8226,> 100 µM (inactive)
same,GI50,PC-3,> 100 µM (inactive)
same,GI50,Hs-578T,34 µM (inactive)
same,GI50,MCF7,57.1 µM (inactive)
same,GI50,ACHN,> 100 µM (inactive)
same,GI50,K562,> 100 µM (inactive)
same,GI50,M14,> 100 µM (inactive)
same,GI50,HCT-15,> 100 µM
same,GI50,SN12C,> 100 µM (inactive)
same,GI50,U-251,62.5 µM (inactive)
same,GI50,MOLT-4,> 100 µM (inactive)
same,GI50,MDA-MB-231,25.2 µM (inactive)
same,GI50,MDA-MB-435,> 100 µM (inactive)
same,GI50,SNB-19,42 µM (inactive)
same,GI50,IGROV-1,> 100 µM (inactive)
same,GI50,Malme-3M,> 100 µM (inactive)
same,GI50,LOX IMVI,95.9 µM (inactive)
same,GI50,SW-620,> 100 µM (inactive)
same,GI50,SF-268,49.2 µM (inactive)
same,GI50,TK-10,42.3 µM (inactive)
same,GI50,DU-145,> 100 µM (inactive)
same,GI50,SR,> 100 µM (inactive)
same,GI50,SK-MEL-2,90.8 µM (inactive)
same,GI50,KM12,> 100 µM (inactive)
same,GI50,HL-60,> 100 µM (inactive)
same,GI50,HT-29,> 100 µM (inactive)
same,GI50,SK-MEL-28,> 100 µM (inactive)
same,GI50,OVCAR-4,> 100 µM (inactive)
same,GI50,NCI-H226,81.7 µM (inactive)
same,GI50,SK-OV-3,> 100 µM (inactive)
same,GI50,RXF 393,20.9 µM (inactive)
same,GI50,MDA-N,88.3 µM (inactive)
same,GI50,UACC-62,38.5 µM (inactive)
same,GI50,HCC 2998,> 100 µM (inactive)
same,GI50,OVCAR-8,78.3 µM (inactive)
same,GI50,HCT-116,24.9 µM (inactive)
same,GI50,SF-539,50.4 µM (inactive)
same,GI50,NCI/ADR-RES,44.6 µM (inactive)
same,GI50,OVCAR-5,> 100 µM (inactive)
